Measurements as given in patent US8916575B2, “Quinazoline derivatives for the treatment of viral infections and further diseases” (Janssen R&D Ireland, priority 2011, dated 2014).

Experiments:
[1] = system: interferon-stimulated responsive elements (ISRE); experiment: Activation of ISRE promoter elements by conditioned media from PBMC (HEK-ISREluc); type: cell-based, human; design: unit not given here; conditions: compound applied to PBMCs, supernatant transferred to HEK-ISREluc cells, 24 hours
Description: The potential of compounds to induce IFN-I was also evaluated by measuring the activation of interferon-stimulated responsive elements (ISRE) by conditioned media from PBMC. The ISRE element of sequence GAAACTGAAACT is highly responsive to the STAT1-STAT2-IRF9 transcription factor, activated upon binding of IFN-I to their receptor IFNAR (Clontech, PT3372-5W). The plasmid pISRE-Luc from Clontech (ref. 631913) contains 5 copies of this ISRE element, followed by the firefly luciferase ORF. A HEK293 cell line stably transfected with pISRE-Luc (HEK-ISREluc) was established to profile of the conditioned PBMC cell culture media.
Briefly, PBMCs were prepared from buffy coats of at least two donors using a standard Ficoll centrifugation protocol. Isolated PBMCs were resuspended in RPMI medium supplemented with 10% human AB serum and 2×10^5 cells/well were dispensed into 384-well plates containing compounds (70 μL total volume). After overnight incubation, 10 μL of supernatant was transferred to 384-well plates containing 5×10^3 HEK-ISREluc cells/well in 30 μL (plated the day before). Following 24 hours of incubation, activation of the ISRE elements was measured by assaying luciferase activity using 40 μL/well Steady Lite Plus substrate (Perkin Elmer) and measured with ViewLux ultraHTS microplate imager (Perkin Elmer). The stimulating activity of each compound on the HEK-ISREluc cells was reported as LEC value, defined as the compound concentration applied to the PBMCs resulting in a luciferase activity at least two fold above the standard deviation of the assay. The LEC in turn indicates the degree of ISRE activation on transfer of a defined amount of PBMC culture medium. Recombinant interferon α-2a (Roferon-A) was used as a standard control compound.

human TLR7 = target: T1, human TLR7 (Homo sapiens, UniProt Q9NYK1); experiment: TLR7 wild type NFκB-luc cellular reporter assay; type: cell-based; design: unit not given here; conditions: HEK293 NFκB-luc reporter, 6 hours incubation; second part of table
T1 construct: expressed in transfected cells; host or cells: HEK293
T1 sequence (Q9NYK1 27-1049): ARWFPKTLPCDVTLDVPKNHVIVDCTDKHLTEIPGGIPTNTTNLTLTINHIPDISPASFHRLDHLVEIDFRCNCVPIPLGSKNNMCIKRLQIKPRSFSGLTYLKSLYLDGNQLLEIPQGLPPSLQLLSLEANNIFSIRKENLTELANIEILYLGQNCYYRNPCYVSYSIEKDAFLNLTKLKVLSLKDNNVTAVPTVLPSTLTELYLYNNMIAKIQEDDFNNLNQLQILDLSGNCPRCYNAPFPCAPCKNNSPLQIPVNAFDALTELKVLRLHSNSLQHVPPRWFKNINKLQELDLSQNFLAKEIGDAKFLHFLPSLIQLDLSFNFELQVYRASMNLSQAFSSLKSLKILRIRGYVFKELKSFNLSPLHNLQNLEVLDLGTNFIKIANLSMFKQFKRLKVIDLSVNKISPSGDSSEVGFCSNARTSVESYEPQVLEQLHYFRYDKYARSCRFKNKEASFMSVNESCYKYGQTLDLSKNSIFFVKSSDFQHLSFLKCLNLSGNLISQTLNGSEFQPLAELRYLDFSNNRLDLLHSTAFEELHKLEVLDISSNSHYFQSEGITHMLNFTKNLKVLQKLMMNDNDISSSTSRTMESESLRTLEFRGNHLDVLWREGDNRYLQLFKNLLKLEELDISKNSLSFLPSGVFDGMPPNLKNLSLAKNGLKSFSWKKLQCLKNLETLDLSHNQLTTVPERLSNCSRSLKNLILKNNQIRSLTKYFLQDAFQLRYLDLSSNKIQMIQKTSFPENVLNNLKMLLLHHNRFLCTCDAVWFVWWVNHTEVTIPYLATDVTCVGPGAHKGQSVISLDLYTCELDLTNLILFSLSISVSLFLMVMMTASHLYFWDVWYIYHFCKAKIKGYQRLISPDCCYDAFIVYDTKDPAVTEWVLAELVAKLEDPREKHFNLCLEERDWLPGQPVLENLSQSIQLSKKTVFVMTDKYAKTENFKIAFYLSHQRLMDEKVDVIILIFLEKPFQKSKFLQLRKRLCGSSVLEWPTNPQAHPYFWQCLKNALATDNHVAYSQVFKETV
Description: The ability of compounds to activate human TLR7 and/or TLR8 was assessed in a cellular reporter assay using HEK293 cells transiently transfected with a TLR7 or TLR8 expression vector and NFκB-luc reporter construct. In one instance the TLR expression construct expresses the respective wild type sequence or a mutant sequence comprising a deletion in the second leucine-rich repeat of the TLR.
Briefly, HEK293 cells were grown in culture medium (DMEM supplemented with 10% FCS and 2 mM Glutamine). For transfection of cells in 10 cm dishes, cells were detached with Trypsin-EDTA, transfected with a mix of CMV-TLR7 or TLR8 plasmid (750 ng), NFκB-luc plasmid (375 ng) and a transfection reagent and incubated 24 hours at 37° C. in a humidified 5% CO2 atmosphere. Transfected cells were then detached with Trypsin-EDTA, washed in PBS and resuspended in medium to a density of 1.67×10^5 cells/mL. Thirty microliters of cells were then dispensed into each well in 384-well plates, where 10 μL of compound in 4% DMSO was already present. […] Dose response curves were generated from measurements performed in quadruplicates. Lowest effective concentrations (LEC) values, defined as the concentration that induces an effect which is at least two fold above the standard deviation of the assay, were determined for each compound.

SMILES: CCC[C@@H](CCO)Nc1nc(N)nc2c(F)cccc12 [Compound 63]
- HEK-ISRE luc (LEC) [1]: 0.04
- TLR7-wt (LEC) (human TLR7): 0.29

SMILES: CCC[C@@H](CCO)Nc1nc(N)nc2cc(F)ccc12 [Compound 64]
- HEK-ISRE luc (LEC) [1]: 0.04
- TLR7-wt (LEC) (human TLR7): 0.11

SMILES: CCC[C@@H](CCO)Nc1nc(N)nc2ccc(F)cc12 [Compound 65]
- HEK-ISRE luc (LEC) [1]: 0.56
- TLR7-wt (LEC) (human TLR7): 0.94

SMILES: CCC[C@@H](CCO)Nc1nc(N)nc2cccc(F)c12 [Compound 66]
- HEK-ISRE luc (LEC) [1]: 0.06
- TLR7-wt (LEC) (human TLR7): 0.22

SMILES: CC[C@H](C)[C@@H](CO)Nc1nc(N)nc2c(F)cccc12 [Compound 67]
- HEK-ISRE luc (LEC) [1]: 0.21
- TLR7-wt (LEC) (human TLR7): 2.50

SMILES: CC[C@H](C)[C@@H](CO)Nc1nc(N)nc2ccc(F)cc12 [Compound 68]
- HEK-ISRE luc (LEC) [1]: 0.64
- TLR7-wt (LEC) (human TLR7): 4.57

SMILES: CCC[C@@H](CO)Nc1nc(N)nc2c(Cl)cccc12 [Compound 69]
- HEK-ISRE luc (LEC) [1]: 0.73
- TLR7-wt (LEC) (human TLR7): 7.48

SMILES: CCC[C@@H](CO)Nc1nc(N)nc2cc(Cl)ccc12 [Compound 70]
- HEK-ISRE luc (LEC) [1]: 0.01
- TLR7-wt (LEC) (human TLR7): 0.41

SMILES: CCC[C@@H](CO)Nc1nc(N)nc2cccc(Cl)c12 [Compound 71]
- HEK-ISRE luc (LEC) [1]: 0.03
- TLR7-wt (LEC) (human TLR7): 1.02

SMILES: CCC[C@@H](CO)Nc1nc(N)nc2cc(F)c(F)cc12 [Compound 72]
- HEK-ISRE luc (LEC) [1]: 0.05
- TLR7-wt (LEC) (human TLR7): 2.59

SMILES: CCCC[C@@H](CCO)Nc1nc(N)nc2cc(C)ccc12 [Compound 73]
- HEK-ISRE luc (LEC) [1]: 0.02
- TLR7-wt (LEC) (human TLR7): 0.03

SMILES: CCCC[C@@H](CCO)Nc1nc(N)nc2ccc(C)cc12 [Compound 74]
- HEK-ISRE luc (LEC) [1]: 0.14
- TLR7-wt (LEC) (human TLR7): 0.44

SMILES: CCCC[C@@H](CCO)Nc1nc(N)nc2cccc(C)c12 [Compound 75]
- HEK-ISRE luc (LEC) [1]: 0.02
- TLR7-wt (LEC) (human TLR7): 0.14

SMILES: CCCC[C@@H](CO)Nc1nc(N)nc2cc(OC)ccc12 [Compound 76]
- HEK-ISRE luc (LEC) [1]: 0.09
- TLR7-wt (LEC) (human TLR7): 0.26

SMILES: CCCC[C@@H](CO)Nc1nc(N)nc2ccc(OC)cc12 [Compound 77]
- HEK-ISRE luc (LEC) [1]: 1.93
- TLR7-wt (LEC) (human TLR7): 3.48

SMILES: CCC[C@@H](CCO)Nc1nc(N)nc2cc(OC)ccc12 [Compound 78]
- HEK-ISRE luc (LEC) [1]: 0.04
- TLR7-wt (LEC) (human TLR7): 0.20

SMILES: CCC[C@@H](CCO)Nc1nc(N)nc2ccc(OC)cc12 [Compound 79]
- HEK-ISRE luc (LEC) [1]: 2.07
- TLR7-wt (LEC) (human TLR7): 11.87

SMILES: CC[C@H](C)[C@@H](CO)Nc1nc(N)nc2ccc(OC)cc12 [Compound 80]
- HEK-ISRE luc (LEC) [1]: >24
- TLR7-wt (LEC) (human TLR7): >25

SMILES: CCCC[C@@H](CCO)Nc1nc(N)nc2c(F)cccc12 [Compound 81]
- HEK-ISRE luc (LEC) [1]: 0.05
- TLR7-wt (LEC) (human TLR7): 0.11

SMILES: CCCC[C@@H](CCO)Nc1nc(N)nc2cc(F)ccc12 [Compound 82]
- HEK-ISRE luc (LEC) [1]: 0.04
- TLR7-wt (LEC) (human TLR7): 0.04

SMILES: CCCC[C@@H](CCO)Nc1nc(N)nc2ccc(F)cc12 [Compound 83]
- HEK-ISRE luc (LEC) [1]: 0.37
- TLR7-wt (LEC) (human TLR7): 1.59

SMILES: CCCC[C@@H](CCO)Nc1nc(N)nc2cccc(F)c12 [Compound 84]
- HEK-ISRE luc (LEC) [1]: 0.09
- TLR7-wt (LEC) (human TLR7): 0.44

SMILES: CCCCNc1nc(N)nc2ccc(Br)cc12 [Compound 85]
- HEK-ISRE luc (LEC) [1]: 0.21
- TLR7-wt (LEC) (human TLR7): 0.51

SMILES: CCC[C@@H](CO)Nc1nc(N)nc2cc(C(=O)OC)ccc12 [Compound 86]
- HEK-ISRE luc (LEC) [1]: 0.28
- TLR7-wt (LEC) (human TLR7): 2.01

SMILES: CCCC[C@@H](CCO)Nc1nc(N)nc2cc(OC)ccc12 [Compound 87]
- HEK-ISRE luc (LEC) [1]: 0.04
- TLR7-wt (LEC) (human TLR7): 0.16

SMILES: CCCC[C@@H](CCO)Nc1nc(N)nc2ccc(OC)cc12 [Compound 88]
- HEK-ISRE luc (LEC) [1]: 0.88
- TLR7-wt (LEC) (human TLR7): 1.85

SMILES: CCCCNc1nc(N)nc2cc(OC)c(OCc3ccccc3)cc12 [Compound 89]
- HEK-ISRE luc (LEC) [1]: >24
- TLR7-wt (LEC) (human TLR7): 1.84
